From patent publication US8759400B2, “Histone deacetylase inhibitors for enhancing activity of antifungal agents” (MethylGene Inc., priority 2005, dated 2014)
In brackets after ≈: the same amount, converted by molar mass. Like-named read-outs stand apart in the source and are kept apart here.

System: C. glabrata parent strain (ATCC 90030) and C. glabrata mutants
Assay: microbe, parasite or virus in culture
Format: cell-based
Conditions: for MIC80: C. glabrata parent strain
[1] = C. glabrata (ATCC 90030) parent strain

O=C(Cc1ccc(CCCCc2ccccc2)cc1)NO [Cpd 4]
4-fold synergy Fluconazole/Cpd 4 [1]: 0.25–0.5 ug/ml Cpd 4 | 4-fold synergy Itraconazole/Cpd 4 [1]: 0.25–0.5 ug/ml Cpd 4 | Compound 4 concentration for synergy with azoles (itraconazole, fluconazole, all azole-resistant mutants tested): ≤ 4 µg/mL | Compound 4 concentration lowering itraconazole MIC80 (itraconazole-resistant mutants): ≤ 44 µg/mL

OC(Cn1cncn1)(Cn1cncn1)c1ccc(F)cc1F [fluconazole]
MIC80 (Nakaseomyces glabratus, ATCC90030, azole alone): 32 µg/mL (≈ 104 µM) | MIC (Nakaseomyces glabratus, ATCC90030, read-out: fluconazole MIC in presence of Compound 4, fluconazole-resistant mutants): 4 to 32 µg/mL | MIC (Nakaseomyces glabratus, ATCC90030, read-out: fluconazole MIC in presence of Compound 4, susceptible parent): 4 to 8 µg/mL | MIC80 (azole alone): 32 to 64 µg/mL
